Reference: ChEMBL document CHEMBL3046237, “Efficacy of methyl nonyl ketone as an in-soil repellent for common voles (Microtus arvalis)” (2013)
Activity calls are given as the source filed them. No cut-off for these calls is given here.

Experiments:
Microtus arvalis [1] = experiment: In-soil repellent activity against Microtus arvalis (Common vole) in forage grassland assessed as decrease in number of active burrow entrances at 3.97% ai applied as foam in field for first 3 days and reapplied on day 10 measured on day 14; format: functional, organism-based
Microtus arvalis [2] = experiment: In-soil repellent activity against Microtus arvalis (Common vole) in forage grassland assessed as decrease in number of active burrow entrances at 3.97% ai applied as foam in field for first 3 days and reapplied on day 10 measured at 24 hr after last drug dosage; format: functional, organism-based
Microtus arvalis [3] = experiment: Decrease in reopening of compound treated burrow entrances in forage grassland by Microtus arvalis (Common vole) assessed as increase in number of new burrow entrances at 3.97% ai applied as foam in field (reference value: 41 +/-21.1%); format: functional; set-up: scale not given: the % may be the effect or the level left
Microtus arvalis [4] = experiment: In-soil repellent activity against Microtus arvalis (Common vole) in forage grassland assessed as decrease in number of active burrow entrances at 3.97% ai applied as foam in field measured after 4-5 days of treatment; format: functional, organism-based
Microtus arvalis [5] = experiment: In-soil repellent activity against Microtus arvalis (Common vole) in forage grassland assessed as decrease in number of active burrow entrances at 3.97% ai applied as foam in field measured after 6 days of treatment relative to untreated control; format: functional
Microtus arvalis [6] = experiment: In-soil repellent activity against Microtus arvalis (Common vole) in forage grassland assessed as decrease in number of active burrow entrances at 3.97% ai applied as foam in field measured after 6 days of treatment (reference value: 48 +/-12%); format: functional
Microtus arvalis [7] = experiment: In-soil repellent activity against Microtus arvalis (Common vole) in forage grassland assessed as decrease in number of active burrow entrances at 3.97% ai applied as foam in field measured after 48 hr relative to control; format: functional
Microtus arvalis [8] = experiment: In-soil repellent activity against Microtus arvalis (Common vole) in forage grassland assessed as decrease in number of active burrow entrances at 3.97% ai applied as foam in field measured after 24 hr relative to control; format: functional
Microtus arvalis [9] = experiment: In-soil repellent activity against Microtus arvalis (Common vole) in forage grassland assessed as decrease in number of active burrow entrances at 3.97% ai applied as foam in field for 3 days measured on day 10; format: functional, organism-based
Microtus arvalis [10] = experiment: In-soil repellent activity against Microtus arvalis (Common vole) in forage grassland assessed as decrease in number of active burrow entrances at 3.97% ai applied as foam in field for 3 days measured on day 7; format: functional, organism-based
Microtus arvalis [11] = experiment: In-soil repellent activity against Microtus arvalis (Common vole) in forage grassland assessed as decrease in number of active burrow entrances at 3.97% ai applied as foam in field measured after 3 days of treatment; format: functional, organism-based
Microtus arvalis [12] = experiment: Decrease in reopening of compound treated burrow entrances in forage grassland by Microtus arvalis (Common vole) assessed as increase in number of new burrow entrances at 3.97% ai applied as foam in field measured after 5 days of treatment (reference value: 40 +/-19.4%); format: functional; set-up: scale not given: the % may be the effect or the level left

With CCCCCCCCCC(C)=O [METHYL NONYL KETONE] the inhibition (Microtus arvalis [1]) was “Active”, the inhibition (Microtus arvalis [2]) was “Active” and the Activity (Microtus arvalis [3]) was 73%. The inhibition (Microtus arvalis [4]) was “Active”, the “fold change (FC)” value (Microtus arvalis [5]) was 2 and the “inhibition (INH)” value (Microtus arvalis [6]) was 92%. The “fold change (FC)” value (Microtus arvalis [7]) was 2, the “fold change (FC)” value (Microtus arvalis [8]) was 3 and the inhibition (Microtus arvalis [9]) was “inactive”. For the same compound, the inhibition (Microtus arvalis [10]) was “Active”, the inhibition (Microtus arvalis [11]) was “Active” and the Activity (Microtus arvalis [12]) was 95%.
